System: p53 translation
Test: p53 translation by 35S methionine metabolic labeling of HT1080 cells
Assay type: cell-based, human
Details: HT1080, triptolide 20 ng/ml pretreatment 6 h
Experimental: Metabolic Labeling of HT1080 Cells. Cells were grown to 80% confluence followed by pretreatment with triptolide (20 ng/ml) for 6 h in the appropriate medium. Cells were washed twice with short term labeling medium (RPMI with 5% dialyzed fetal calf serum supplemented with L-glutamine, penicillin, and streptomycin). To deplete intracellular pools of methionine, short term labeling medium was added for 15 min at 37° C. and then replaced by short term labeling medium containing 0.1 mCi/ml [35S]methionine (Amersham Pharmacia Biotech). Cells were labeled for 30 min at 37° C. and washed with ice-cold PBS before harvesting for immunoprecipitation. The cells were lysed using RIPA buffer supplemented with protease inhibitors and immunoprecipitated using an agarose-conjugated p53 mAb (Ab-6, Oncogene Research Products) followed by 10% SDS-PAGE. The intensity of labeled p53 protein was measured by NIH Image 1.62.

Q: How did the “increase in p53 translation” value turn out when `CC(C)[C@]12O[C@H]1[C@@H]1O[C@]13[C@]1(O[C@H]1C[C@H]1C4=C(CC[C@@]13C)C(=O)OC4)[C@@H]2O` [PG490, triptolide] was run?
A: 4.9 fold

Source: patent publication US6599499B1, “Uses of diterpenoid triepoxides as an anti-proliferative agent” (priority 1999, dated 2003)
